# Data reported in PMC10650714, “Double Attack to Oxidative Stress in Neurodegenerative Disorders: MAO-B and Nrf2 as Elected Targets” (Molecules, 2023).
# Entries after “also recorded” stand apart in the source; their conditions may differ.
# Experiments:
# [1] = system: Nrf2 nuclear translocation in SH-SY5Y cells; assay: Nrf2 nuclear translocation (Western blot of nuclear extracts); format: cell-based, human
# Description: In physiological conditions, the repressor Keap1 traps Nrf2 at the cytosolic level, preventing the activation of Nrf2 pathway. The disruption of Keap1–Nrf2 interaction allows for Nrf2 nuclear translocation, thus resulting in the transcriptional activation of its target cytoprotective genes. […] We and others have previously developed several compounds bearing caffeic and ferulic fragments able to activate Nrf2 in terms of the up-regulation of Nrf2 expression, translocation into the nucleus and induction of the Nrf2-dependent defensive genes, with (pro)electrophilic features emerging as key players. Herein, to analyse the effect of the new molecules on the Nrf2 downstream cascade, the ability of compounds 1–5 to increase Nrf2 nuclear translocation was preliminary evaluated as a pivotal step in Nrf2 signalling activation (Figure 6). Based on MAO-B inhibitory potency and cell toxicity assay, compounds were studied in SH-SY5Y human neuroblastoma cells at the concentration of 5 μM. Given the high structural analogy with our derivatives, we selected the well-known Nrf2 inducer CAPE [37, 38] as the reference compound, and verified its ability to induce Nrf2 nuclear translocation at different concentrations, ranging from 5 µM to 50 µM in our experimental model (Figure S6). Nrf2 nuclear content was assessed via Western blot analysis. […] Consistently, data from literature highlight discrepancies about pioglitazone-mediated Nrf2 activation, indicating its ability to activate Nrf2 in longer timeframes and different in vitro and in vivo experimental conditions. […] The preliminary docking performed on human Keap-1 confirms the excellent positioning of compound 2 within the BTB domain pocket, where cysteine 151 is located (see Figure S5). […] Particularly, all these new molecules hold the characteristic (pro)electrophilic fragments, which however, in this case, resulted to be insufficient to activate Nrf2, as reported for other ferulic and caffeic derivatives. In this regard, optimal target interaction might play a major role, but further biological investigations are needed to fully clarify the mechanism of Nrf2 activation and the effect on the downstream expression of cytoprotective genes.
# SH-SY5Y cells (5 × 106) were seeded in […] dishes and treated for 3 h with 5 μM compounds; afterward, the medium was removed, and cells were washed twice with ice-cold PBS. Cells were subsequently homogenized 15 times using a glass−glass Dounce homogenizer in 0.32 M sucrose, buffered with 20 mM Tris- HCl (pH 7.4), containing 2 mM EDTA, 0.5 mM EGTA, 50 mM β-mercaptoethanol and 20 μg/mL leupeptin, apotrinin and pepstatin. The homogenate was centrifuged at 300× g for 5 min to obtain the nuclear fraction. An aliquot of the nuclear fraction was used for protein assay via the Bradford method, whereas the remaining was boiled for 5 min after dilution with sample buffer and subjected to polyacrylamide gel electrophoresis and immunoblotting, as described.
# [2] = system: ROS production in HepG2 cells; assay: Intracellular ROS generation rate (DCF-DA); format: cell-based, human; settings: 5 µM, 30 min; for ROS generation rate (oxidation rate of DCF): both in the presence and absence of antimycin A (10 µM); for effect on antimycin A-induced ROS: antimycin A 10 µM
# Description: Thus, on the basis of the hMAO-B inhibitory potency and on the Nrf2 nuclear translocation results, the most promising compounds 2 and 3 were chosen for the evaluation of their antioxidant activity in the human hepatic HepG2 cells, a valuable cellular system to assess antioxidant properties of the compounds [43, 44]. CAPE and pioglitazone were also tested as reference compounds. HepG2 cells were pre-loaded with dichlorofluorescein diacetate (DCF-DA), a fluorescent probe to detect ROS generation. […] Immediately, antimycin A (10 µM), an inhibitor of the complex III of the mitochondrial electron transport chain, was also added as an ROS inducer. The oxidation rate of DCF, that is, the generation rate of ROS, was detected for 30 min, and for each sample, the corresponding control was also run.
# HepG2 cells (human hepatocellular carcinoma) were purchased from the American Type Culture Collection (ATCC HB-8065). Cells were grown in MEM (M0894, Merck Life Sciences S.r.l., Milan, Italy) supplemented with 2.2 g/L NaHCO3 (S5761, Merck Life Sciences S.r.l., Milan, Italy), 100 U/mL penicillin, 100 μg/mL streptomycin and 0.25 μg/mL amphotericin B (A5955, Merck Life Sciences S.r.l., Milan, Italy) and 10% foetal calf serum (F7524, Merck Life Sciences S.r.l., Milan, Italy). Cells were cultured at 37 °C in a humidified atmosphere incubator containing 5% carbon dioxide in air.
# The intracellular production of ROS was detected via a fluorometric method using 2′,7′-dichlorofluorescein diacetate (D6883, Merck Life Sciences S.r.l., Milan, Italy) as probe. HepG2 cells (6 × 10^3/well) were seeded into a 96-well culture plate in 200 µL of a complete growth medium and incubated for 48 h in standard conditions. The medium was then removed, and cells were washed with 5 mM of PBS–glucose. Then, cells were loaded with 10 μM of 2′,7′-dichlorofluorescein diacetate in 5 mM of PBS–glucose at 37 °C in the dark for 20 min, washed with 5 mM of PBS–glucose, treated with the test compounds at indicated concentrations in 5 mM of PBS–glucose and then analysed. Fluorescence intensity was recorded for 30 min at λemx = 485 nm and λem = 527 nm, using a Victor X3 Multilabel plate reader (Perkin Elmer). The rate of ROS generation was calculated relative to untreated cells (controls) after subtraction of autofluorescence value. Results were presented as the mean values of at least three independent experiments performed with six replicates.
SMILES,"Nrf2 nuclear translocation ([1]; 5 µM and 20 µM, 3 h)",ROS generation rate (oxidation rate of DCF) [2],effect on antimycin A-induced ROS [2],"Nrf2 nuclear translocation ([1]; 5 μM, 3 h)",Nrf2 nuclear translocation ([1]; until concentrations higher than 50 µM)
"O=C(/C=C/c1ccc(O)c(O)c1)OCCc1ccccc1 [CAPE, caffeic acid phenethyl ester, reference compound]",induced Nrf2 nuclear translocation,strongly reducing the oxidation rate of DCF,almost abolish the effect of antimycin A stimulus,,
"O=C(/C=C/c1ccc(O)c(O)c1)Oc1ccc(CC2SC(=O)NC2=O)cc1 (centres unmarked) [Compound 2, 4-((2,4-Dioxothiazolidin-5-yl)methyl)phenyl (E)-3-(3,4-Dihydroxyphenyl)acrylate]",,highest antioxidant potency; also recorded: significantly reduced cellular ROS content,almost abolish the effect of antimycin A stimulus,most active; also recorded: strongly induced Nrf2 translocation into the nucleus,
"CCc1ccc(CCOc2ccc(CC3SC(=O)NC3=O)cc2)nc1 (centres unmarked) [Pioglitazone, reference compound]",,did not show any effect on the ROS generation rate,,,not able to induce Nrf2 nuclear translocations
